Laboratory results from patent US5834461A, “Tricyclic benzazepine vasopressin antagonists” (American Cyanamid Company, priority 1997, dated 1998).

Legend:
[1] = biological target: T1, oxytocin receptors (rat uterus membranes) (Rattus norvegicus, UniProt P70536); assay: Oxytocin Receptor Binding; set-up: species or system female Sprague-Dawley rats
T1 construct: The resulting pellet containing the oxytocin receptors is resuspended; from tissue; host or cells: uterus membranes of DES-treated female Sprague-Dawley rats
T1 sequence (P70536 1-388): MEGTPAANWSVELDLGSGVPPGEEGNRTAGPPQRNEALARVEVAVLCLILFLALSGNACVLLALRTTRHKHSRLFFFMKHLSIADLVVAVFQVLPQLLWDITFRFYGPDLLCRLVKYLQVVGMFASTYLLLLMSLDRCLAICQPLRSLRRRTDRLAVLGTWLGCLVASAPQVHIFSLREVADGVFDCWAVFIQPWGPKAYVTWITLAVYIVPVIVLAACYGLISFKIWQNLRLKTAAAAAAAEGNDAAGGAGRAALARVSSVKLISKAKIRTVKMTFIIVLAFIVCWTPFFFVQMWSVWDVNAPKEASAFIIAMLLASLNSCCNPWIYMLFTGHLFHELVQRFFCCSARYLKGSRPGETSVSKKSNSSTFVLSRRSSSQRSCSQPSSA
Experimental: Female Sprague-Dawley rats weighing approximately 200-250 g are injected intramuscularly (i.m.) with 0.3 mg/kg of body weight of diethylstilbestrol (DES). The rats are sacrificed 18 hours later under pentobarbital anesthesia. The uteri are dissected out, cleaned of fat and connective tissues and rinsed in 50 ml of normal saline. The tissue pooled from six rats is homogenized in 50 ml of […] Tris.HCl, containing 0.5 mM dithiothreitol and 1.0 mM EDTA, adjusted to pH 7.4, using a polytron at setting 6 with three passes of 10 sec each. The homogenate is passed through two (2) layers of cheesecloth and the filtrate centrifuged at 1000×g for 10 min. The clear supernatant is removed and recentrifuged at 165,000×g for 30 min. The resulting pellet containing the oxytocin receptors is resuspended in 50.0 mM Tris.HCl containing 5.0 mM MgCl2 at pH 7.4, to give a protein concentration of 2.5 mg/ml of tissue suspension. This preparation is used in subsequent binding assays with [^3 H]Oxytocin.
Binding of 3,5-[^3 H]Oxytocin ([^3 H]OT) to its receptors is done in microtiter plates using [^3 H]OT, at various concentrations, in an assay buffer of 50.0 mM Tris.HCl, pH 7.4 and containing 5.0 mM MgCl2, and a mixture of protease inhibitors: BSA, 0.1 mg; aprotinin, 1.0 mg; 1,10-phenanthroline, 2.0 mg; […], 10.0 mg; and PMSF, 0.3 mg per 100 ml of buffer solution. Non-specific binding is determined in the presence of 1.0 uM unlabeled OT. The binding reaction is terminated after 60 min., at 22° C., by rapid filtration through glass fiber filters using a Brandel® cell harvester (Biomedical Research and Development Laboratories, Inc., Gaithersburg, Md.). Competition experiments are conducted at equilibrium using 1.0 nM [^3 H]OT and varying the concentration of the displacing agents. The concentrations of agent displacing 50% of [^3 H]OT at its sites (IC50) are calculated by a computer assisted LUNDON-2 program (LUNDON SOFTWARE INC., Ohio, USA).

[2] = biological target: T2, vasopressin V1 receptor subtype in human platelet membranes (Homo sapiens, UniProt P37288); assay: Binding to Vasopressin V1 Receptor Subtype in Human Platelet Membranes; details: for IC50: human platelet V1 (*)
T2 construct: tissue Hudson Valley Blood Services; host or cells: human blood platelets (frozen platelet rich plasma)
T2 sequence (P37288 whole entry): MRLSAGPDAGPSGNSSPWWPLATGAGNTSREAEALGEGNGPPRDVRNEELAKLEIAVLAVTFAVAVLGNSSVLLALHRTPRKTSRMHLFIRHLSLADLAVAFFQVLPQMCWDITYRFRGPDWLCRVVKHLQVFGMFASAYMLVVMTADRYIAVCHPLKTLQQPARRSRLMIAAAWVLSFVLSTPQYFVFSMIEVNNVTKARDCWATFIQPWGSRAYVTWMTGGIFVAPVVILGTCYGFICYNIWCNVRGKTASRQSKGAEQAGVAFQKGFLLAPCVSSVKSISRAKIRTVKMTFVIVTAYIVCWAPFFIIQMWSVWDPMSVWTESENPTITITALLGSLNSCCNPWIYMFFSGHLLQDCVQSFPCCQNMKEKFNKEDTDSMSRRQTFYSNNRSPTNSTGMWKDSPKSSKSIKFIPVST
Experimental: (a) Platelet Membrane Preparation:
Frozen platelet rich plasma (PRP), received from the Hudson Valley Blood Services, are thawed to room temperature. (Platelet Source: Hudson Valley Blood Services, Westchester Medical Center, Valhalla, N.Y.). The tubes containing the PRP are centrifuged at 16,000×g for 10 min. at 4° C. and the supernatant fluid discarded. The platelets resuspended in an equal volume of 50.0 mM Tris.HCl, pH 7.5 containing 120 mM NaCl and 20.0 mM EDTA. The suspension is recentrifuged at 16,000×g for 10 min. This washing step is repeated one more time. The wash discarded and the lysed pellets homogenized in low ionic strength buffer of Tris.HCl, 5.0 mM, pH 7.5 containing 5.0 mM EDTA. The homogenate is centrifuged at 39,000×g for 10 min. The resulting pellet is resuspended in Tris.HCl buffer, 70.0 mM, pH 7.5 and recentrifuged at 39,000×g for 10 min. The final pellet is resuspended in 50.0 mM Tris.HCl buffer pH 7.4 containing 120 mM NaCl and 5.0 mM KCl to give 1.0-2.0 mg protein per ml of suspension.
(b) Binding to Vasopressin V1 Receptor Subtype in Human Platelet Membranes:
In wells of a 96 well format microtiter plate, add 100 μl of 50.0 mM Tris.HCl buffer containing 0.2% BSA and a mixture of protease inhibitors (aprotinin, leupeptin etc.). Then add 20 μl of [^3 H]Ligand (Manning or Arg^8 Vasopressin), to give final concentrations ranging from 0.01 to 10.0 nM. Initiate the binding by adding 80.0 μl of platelet suspension (approx. 100 μg protein). Mix all reagents by pipetting the mixture up and down a few times. Non specific binding is measured in the presence of 1.0 μM of unlabeled ligand (Manning or Arg^8 Vasopressin). Let the mixture stand undisturbed at room temperature for ninety (90) min. Upon this time, rapidly filter off the incubate under vacuum suction over GF/B filters, using a Brandel Harvester. The radioactivity caught on the filter disks is determined by the addition of liquid scintillant and counting in a liquid scintillator.

| inhibition at 10 µM [1] | IC50 ([1]; first part of Table V) | IC50 [2] | IC50 ([1]; second part of Table V) | inhibition at 10 µM ([2]; 1.5 h, 10 μM, human platelet (*), read-out: *V1, % at concentration in brackets) | Compound |
| --- | --- | --- | --- | --- | --- |
| 55% | 6200 nM | 620 nM |  |  | Cc1c(F)cccc1C(=O)Nc1ccc(C(=O)N2Cc3ccccc3Cc3ccccc32)cc1Cl [Example 262, N-[4-[(6,11-Dihydro-5H-dibenz[b,e]azepin-5-yl)-carbonyl]-2-chlorophenyl]-2-methyl-3-fluorobenzamide] |
| 77% | 3100 nM |  |  |  | O=C(Nc1ccc(C(=O)N2Cc3ccccc3Cc3ccccc32)cc1)c1cccc(Cl)c1Cl [Example 253, N-[4-[(6,11-Dihydro-5H-dibenz[b,e]azepin-5-yl)-carbonyl]phenyl]-2,3-dichlorobenzamide] |
| 100% |  | 28 nM | 170 nM |  | Cc1ccc(F)cc1C(=O)Nc1ccc(C(=O)N2CCc3c[nH]nc3-c3ccccc32)cc1 [Example 584, N-[4-[(4.5-Dihydropyrazolo[4,3-d][1]benzazepin-6(2H)-yl)carbonyl]phenyl]-5-fluoro-2-methylbenzamide] |
| 89% | 1100 nM |  |  |  | Cc1ccccc1C(=O)N(CN(C)C)c1ccc(C(=O)N2Cc3ccccc3Cc3ccccc32)cc1 [Example 267, N-[4-[(6,11-Dihydro-5H-dibenz[b,e]azepin-5-yl)-carbonyl]phenyl]-N-[(dimethylamino)methyl]-2-methylbenzamide] |
| 95% |  | 150 nM | 475 nM |  | Cc1ccc(F)cc1C(=O)Nc1ccc(C(=O)N2CCc3c[nH]nc3-c3ccccc32)c(Cl)c1 [Example 581] |
| 96% | 810 nM |  |  |  | Cc1ccccc1C(=O)Nc1ccc(C(=O)N2CCc3cn(C)nc3-c3ccccc32)cc1 [Example 379, N-[4-[(4,5-Dihydro-2-methylpyrazolo[4,3-d][1]-benzazepin-6(2H)-yl)carbonyl]phenyl]-2-methylbenzamide] |
| 18% |  |  |  |  | Cc1ccccc1C(=O)Nc1c(C)cc(C(=O)N2Cc3ccccc3Cc3ccccc32)cc1C [Example 258, N-[4-[(6,11-Dihydro-5H-dibenz[b,e]azepin-5-yl)-carbonyl]-2,6-dimethylphenyl]-2-methylbenzamide] |
| 39% |  |  |  |  | O=C(Nc1ccc(C(=O)N2Cc3ccccc3Sc3ccccc32)cc1)c1ccccc1Cl [Example 448, N-[4-[(Dibenz[b,f][1,4]thiazepin-10(11H)yl)-carbonyl]phenyl]-2-chlorobenzamide] |
| 88% |  | 250 nM | 1100 nM |  | Cc1nc2c(s1)CCN(C(=O)c1ccc(NC(=O)c3ccc(Cl)cc3Cl)cc1)c1ccccc1-2 [Example 455, N-[4-(4,5-Dihydro-2-methyl-6H-thiazolo[5,4-d][1]-benzazepin-6-yl)carbonyl1phenyl]-2,4-dichlorobenzamide] |
| 94% | 260 nM | 430 nM |  |  | COc1cc(C(=O)N2Cc3ccccc3Cc3ccccc32)ccc1NC(=O)c1ccc(Cl)cc1Cl [Example 263, N-[4-[(6,11-Dihydro-5H-dibenz[b,e]azepin-5-yl)-carbonyl]-2-methoxyphenyl]-2,4-dichlorobenzamide] |
| 77% |  |  |  |  | O=C(Nc1ccc(C(=O)N2Cc3ccccc3Cc3ccccc32)cc1)c1cc(Cl)cc(Cl)c1 [Example 251, N-(4-[(6,11-Dihydro-5H-dibenz[b,e]azepin-5-yl)-carbonyl]phenyl]-3,5-dichlorobenzamide] |
| 99% | 460 nM |  |  |  | O=C(Nc1ccc(C(=O)N2Cc3ccccc3Cc3ccccc32)cc1)C1CC=CCC1 (centres unmarked) [Example 255, N-[4-[(6,11-Dihydro-5H-dibenz[b,e]azepin-5-yl)-carbonyl]phenyl]-3-cyclohexene-1-carboxamide] |
| 97% | 210 nM | 21 nM |  |  | COc1cc(C(=O)N2Cc3ccccc3Cc3ccccc32)ccc1NC(=O)c1cc(F)ccc1C [Example 261, N-[4-[(6,11-Dihydro-5H-dibenz[b,e]azepin-5-yl)-carbonyl]-2-methoxyphenyl]-2-methyl-5-fluorobenzamide] |
| 73% | 2900 nM |  |  |  | Cc1ccccc1C(=O)Nc1ccc(C(=O)N2Cc3ccccc3Cc3ccccc32)cc1 [Example 2, N-[4-[(6,11-Dihydro-5H-dibenz[b,e]azepin-5-yl)carbonyl]phenyl]-2-methylbenzamide] |
|  |  |  | 3300 nM | 14% | CC(C)COc1ccc([N+](=O)[O-])cc1C(=O)Nc1ccc(C(=O)N2Cc3ccccc3Cc3ccccc32)cc1 [Example 453] |
| 19% |  |  |  |  | Cc1ncc2c(n1)-c1ccccc1N(C(=O)c1ccc(NC(=O)c3ccccc3C)cc1)CC2 [Example 416, N-[4-[(6,7-Dihydro-2-methyl-5H-pyrimido[5,4-d][1]-benzazepin-7-yl)carbonyl]phenyl]-2-methylbenzamide] |
| 97% | 189 nM | 16 nM |  |  | COc1cc(C(=O)N2Cc3ccccc3Cc3ccccc32)ccc1NC(=O)c1ccccc1C [Example 257, N-[4-[(6,11-Dihydro-5H-dibenz[b,e]azepin-5-yl)-carbonyl]-2-methoxyphenyl]-2-methylbenzamide] |
| 7% |  |  |  |  | Cc1cc(C(=O)N2Cc3ccccc3Cc3ccccc32)cc(C)c1NC(=O)c1ccc(Cl)cc1Cl [Example 259, N-[4-[(6,11-Dihydro-5H-dibenz[b,e]azepin-5-yl)-carbonyl]-2,6-dimethylphenyl]-2 4-dichlorobenzamide] |
| 86% |  | 90 nM | 940 nM |  | Cc1nc2c(s1)CCN(C(=O)c1ccc(NC(=O)c3cc(F)ccc3C)cc1)c1ccccc1-2 [Example 534] |
| 90% | 2000 nM |  |  |  | Cc1ccccc1C(=O)Nc1ccc(C(=O)N2Cc3ccccc3-c3ccccc32)cc1 [Example 5, 2-Methyl-N-[4-[(5(6H)-phenanthridinyl)carbonyl]phenyl]benzamide] |
| 44% |  |  |  |  | Cc1ccccc1C(=O)Nc1ccc(C(=O)N2Cc3ccccc3Cc3ccccc32)c(Cl)c1 [Example 260, N-[4-[(6,11-Dihydro-5H-dibenz[b,e]azepin-5-yl)-carbonyl]-3-chlorophenyl]-2-methylbenzamide] |
